Measured values: patent US20180369268A1, “METHODS FOR IDENTIFYING INHIBITORS OF "STIMULATOR OF INTERFERON GENE"- DEPENDENT INTERFERON PRODUCTION” (ADURO BIOTECH, INC., priority 2015, published 2018)

The molecules below were run against T1, hSTING HAQ allele (Homo sapiens, UniProt Q86WV6, G230A/H232R/R293Q) (assay: Differential scanning fluorometry (DSF) Tm shift with purified STING AA140-379). Details: DSF, ligand 1 mM, 1 mg/ml STING AA140-379; read-out: hSTING Tm Shift HAQ.
T1 construct: DNA encoding amino acids 140-379 (amino acid numbering corresponding to Swiss Prot Q86WV6); 6xHIS-SUMO (with TEV site) (N, cleaved yes); made in house; host or cells: Rosetta2 (DE3) E. coli
T1 sequence (Q86WV6 140-379 G230A/H232R/R293Q): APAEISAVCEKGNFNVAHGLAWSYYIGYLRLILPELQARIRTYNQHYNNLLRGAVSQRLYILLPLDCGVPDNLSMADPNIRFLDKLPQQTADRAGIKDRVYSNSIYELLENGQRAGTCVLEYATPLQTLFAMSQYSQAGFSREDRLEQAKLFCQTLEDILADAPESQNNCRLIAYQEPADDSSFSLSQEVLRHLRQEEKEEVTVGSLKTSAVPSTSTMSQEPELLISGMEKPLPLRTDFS
Assay type: binding
From the text: DNA encoding amino acids 140-379 (amino acid numbering corresponding to Swiss Prot Q86WV6) was amplified from plasmids containing the full length sequence of human STING alleles via polymerase chain reaction with the following primers: forward […] (SEQ ID NO: 9) and reverse […] (SEQ ID NO: 10). STING variant alleles were assigned according to Yi, et al, (2013), PLoS One, 8(10), e77846 (DOI: 10.1371/journal.pone.0077846. PCR products were cloned into bacterial expression vector encoding a N-terminal hexa-histidine affinity tag (6×HIS) followed by a small ubiquitin-like modifier (SUMO) solubility sequence (Butt, et al, (2005) Protein expression and purification 43.1, 1-9) and tobacco etch virus protease cleavage site (TEV) using ligation independent cloning (Aslanidis, et al, (1990) Nucleic acids research, 18.20, 6069-6074).
Plasmids encoding 6×HIS-SUMO-TEV-STING amino acids 140-379 were transformed into Rosetta2 (DE3) E. coli cells (EMD Millipore) for protein expression. Cells were grown in lysogeny broth at 37° C. until a […] absorbance of 0.6 was reached. Cells were then transferred to 18° C. and protein expression was induced overnight by the addition of isopropyl β-D-1-thiogalactopyranoside to the media at a concentration of 0.25 mM. Cells were harvested by centrifugation at 6,000 times gravity for 10 minutes. Cell pellets were re-suspended on ice in a buffer containing 50 mM Tris hydrochloride (Tris-HCl) pH 7.5, 500 mM sodium chloride (NaCl), 20 mM imidazole, 10% glycerol, 1 mM tris(2-carboxyethyl)phosphine hydrochloride (TCEP) and protease inhibitor tablet (Pierce) (Buffer A). Cells were lysed using an S-450D sonifier (Emmerson industrial) on ice. Cell lysate was centrifuged at 15,000 times gravity for 30 minutes at 4° C. Soluble material was applied to nickel-nitrilotriacetic acid (Ni-NTA) coupled Sepharose CL-6B (Qiagen) for 1 hour with gentle rocking at 4° C. After transfer to a gravity flow poly-prep column (Bio-Rad), resin was washed extensively in buffer A. Protein was eluted from the column in a buffer containing 20 mM Tris-HCl pH 7.5, 150 mM NaCl, 300 mM imidazole, 10% glycerol and 0.5 mM TCEP. To remove the 6×HIS-SUMO tag eluted protein was mixed with TEV protease (Sigma) at a ratio of 1:250 (w:w) and dialyzed overnight against a buffer containing 20 mM Tris-HCl pH 7.5, 150 mM NaCl, 5 mM imidazole, 10% glycerol and 0.5 mM TCEP. TEV protease and 6×HIS-SUMO tags were depleted by the addition of Ni-NTA resin (Qiagen) to the sample, purified STING amino acids 140-379 was collected by removal of the resin using a poly-prep column STING AA140-379 was concentrated with a 10,000 Dalton molecular weight cutoff centrifuge concentrator (EMD Millipore) to a final concentration of approximately 10 mg/ml. Protein was aliquoted, flash frozen in liquid nitrogen and stored at −80° C. until use.
Differential scanning fluorometry (DSF) is a technique that measures the ability of ligands to bind to and stabilize purified proteins (Niesen, et al, (2007) Nature protocols 2.9, 2212-2221). The protein is heated in the presence of a dye that binds to and fluoresces in hydrophobic environments. The protein is thermally denatured by heating resulting in increased dye binding to the unfolded protein and fluorescence. The temperature midpoint (Tm) of a proteins denaturation is established by calculating the half maximal value of the denaturation curve. The temperature midpoint of the protein in the presence of a ligand is directly related to the affinity of the ligand for the protein and therefore its ability to stabilize the protein at higher temperatures.
DSF was performed in a 20 μL reaction comprising 20 mM Tris-HCl pH 7.5, 150 mM NaCl, 1:500 dilution of SYPRO Orange (Life Technologies), 1 mg/ml purified STING AA140-379 protein and ligand at a concentration of 1 mM. Wild type hSTING, HAQ allele hSTING and/or REF allele hSTING were used with scaffold molecules of the invention as listed in Table 2.

ΔTm at 1000 µM	Compound
9.9 °C	CC(C)C(=O)Nc1nc2c(ncn2[C@@H]2O[C@@H]3CO[P@@](=O)(S)O[C@H]4[C@@H](F)[C@H](n5cnc6c(=O)[nH]c(NC(=O)C(C)C)nc65)O[C@@H]4CO[P@](=O)(S)O[C@H]3[C@H]2F)c(=O)[nH]1 [Compound 32a, N,N′-(((2R,3R,3aR,5R,7aR,9R,10R,10aR,12S,14aR)-3,10-difluoro-5,12-dimercapto-5,12-dioxidooctahydro-2H,7H-difuro[3,2-d:3′,2′-j][1,3,7,9]tetraoxa[2,8]diphosphacyclododecine-2,9-diyl)bis(6-oxo-6,9-dihydro-1H-purine-9,2-diyl))bis(2-methylpropanamide)]
4.2 °C	CC(C)C(=O)Nc1nc2c(ncn2[C@@H]2O[C@@H]3CO[P@](=O)(S)O[C@@H]4[C@H](O)[C@@H](CO[P@@](=O)(S)O[C@H]3[C@H]2O)O[C@H]4n2cnc3c(NC(=O)c4ccccc4)ncnc32)c(=O)[nH]1 [Compound 42a, dithio-[RP, SP]-cyclic-[ibG(3′,5′)p-BzA(2′,5′)p]]
5.4 °C	C#CCOc1nc(N)nc2c1ncn2[C@@H]1O[C@@H]2COP(=O)(O)O[C@H]3[C@@H](O)[C@H](n4cnc5c(OCC#C)nc(N)nc54)O[C@@H]3COP(=O)(O)O[C@H]2[C@H]1O [compound 26, (2R,3R,3aS,7aR,9R,10R,10aS,14aR)-2,9-bis(2-amino-6-(prop-2-yn-1-yloxy)-9H-purin-9-yl)-3,5,10,12-tetrahydroxyoctahydro-2H,7H-difuro[3,2-d: 3′,2′-j][1,3,7,9]tetraoxa[2,8]diphosphacyclododecine 5,12-dioxide]

Same assay, conditions: read-out: hSTING Tm Shift HAQ

Compound	ΔTm at 1000 µM
CC(C)(C)[Si](C)(C)O[C@H]1[C@H]2O[P@](=O)(S)OC[C@H]3O[C@@H](n4cnc5c(N)ncnc54)[C@H](F)[C@@H]3O[P@](=O)(S)OC[C@H]1O[C@H]2n1cnc2c(N)ncnc21 [Compound 6, dithio-[RP, RP]-cyclic-[3′OTBS-A(2′,5′)p-2′F-A(3′,5′)p]]	18.1 °C
CC(C)(C)[Si](C)(C)O[C@H]1[C@H]2O[P@](=O)(S)OC[C@H]3O[C@@H](n4cnc5c(N)nc(N)nc54)[C@H](O)[C@@H]3O[P@](=O)(S)OC[C@H]1O[C@H]2n1cnc2c(N)ncnc21 [Compound 12, dithio-[RP, RP]-cyclic-[A(2′,5′)p-2,6-DAP(3′,5′)p]]	14.3 °C
CC(C)(C)[Si](C)(C)O[C@H]1[C@H]2O[P@@](=O)(S)OC[C@H]3O[C@@H](n4cnc5c(N)nc(N)nc54)[C@H](O)[C@@H]3O[P@](=O)(S)OC[C@H]1O[C@H]2n1cnc2c(N)ncnc21 [Compound 12a, dithio-[SP, RP]-cyclic-[A(2′,5′)p-2,6-DAP(3′,5′)p]]	14.5 °C

What follows are molecules tested against T2, STING in THP1 cells (HAQ allele) (Homo sapiens, UniProt Q86WV6, G230A/H232R/R293Q/R71H) (assay: THP-1 competition assay with STING agonist 2′3′-RR-(A)(A) (IRF-3 luciferase reporter)). Details: not given.
T2 construct: host or cells: THP-1 dual reporter cells
T2 sequence (Q86WV6 whole entry R71H/G230A/H232R/R293Q): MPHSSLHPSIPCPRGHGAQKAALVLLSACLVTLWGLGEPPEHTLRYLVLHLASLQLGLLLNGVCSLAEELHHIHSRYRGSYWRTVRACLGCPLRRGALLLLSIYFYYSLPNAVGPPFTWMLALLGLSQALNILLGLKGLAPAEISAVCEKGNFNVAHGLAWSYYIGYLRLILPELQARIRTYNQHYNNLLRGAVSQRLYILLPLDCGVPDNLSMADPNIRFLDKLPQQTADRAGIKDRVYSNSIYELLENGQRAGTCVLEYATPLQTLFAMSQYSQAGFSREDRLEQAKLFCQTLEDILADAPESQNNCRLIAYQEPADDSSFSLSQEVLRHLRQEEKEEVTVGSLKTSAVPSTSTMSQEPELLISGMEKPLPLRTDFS
Assay type: cell-based
Method: The scaffold molecules and STING inhibitory compounds as described herein are assayed for their ability to inhibit the induction of STING dependent IFN-β production by an agonist compound in a competition assay. Relative induction of IRF-3 signaling in THP-1 cells (HAQ allele) was measured after stimulating the cells with a mix of a scaffold molecule (or any putative STING antagonist) titrated against a constant concentration of the STING agonist 2′3′-RR-(A)(A) in PB buffer (50 mM HEPES pH 7.5, 100 mM KCl, 3 mM MgCl2, 0.1 mM DTT, 85 mM sucrose, 0.2% BSA, 1 mM ATP, 0.1 mM GTP).
One day prior to performing the assay, THP-1 dual (Invivogen) reporter cells were plated at 500,000 cells/mL in 200 μL per well in a 96-well plate and differentiated overnight with 3 μg/mL phorbal myristate acetate in RPMI medium 1640 (4.5 g/L D-glucose, 2.383 g/L HEPES, 300 mg/L L-glutamine, 1.5 g/L sodium bicarbonate, 110 mg/L sodium pyruvate, 10% heat-inactivated fetal bovine serum, 1× penicillin/streptomycin, 0.1 mg/mL normocin).
On the day of the assay, the media was removed from the wells and replaced with 150 μL of fresh media. The titrations against 2′ 3′-RR-(A)(A) in a final volume of 100 μL were made as follows: two-fold dilutions (2,000 μM-3.9 μM) of the scaffold molecule into PB buffer containing 100 μM 2′3′-RR-(A)(A) for a final concentration of 50 μM 2′3′-RR-(A)(A). Compounds were tested in biological triplicate.
The cells were then stimulated with 25 μL of each titration for 30 minutes at 37° C. in a CO2 incubator. After stimulating, the cells were washed twice, first with 100 μL and then 150 μL of fresh media. After washing, 150 μL of media was added to each well and the cells were incubated for 17 hours overnight at 37° C. in a CO2 incubator.
To detect IRF-3 signaling, 50 μL of luciferase substrate (Invivogen QUANTI-Luc coelenterazine-based luminescence reagent reconstituted in 25 mL water) was added to 10 μL of supernatant from each well in a 96-well white opaque plate. Luminescence was measured using a SpectraMax M3 plate reader (Molecular Devices) and relative fold-induction was calculated as the values obtained from wells containing both the scaffold molecule and 2′3′-RR-(A)(A) divided by the values obtained from wells containing 2′3′-RR-(A)(A) alone. The average of the relative fold-induction was plotted against the log concentration of the antagonist. Agonist compounds 2′3′-RR-(G)(A) and RR-(A)(A) were run as controls in this assay (see FIGS. 2A and 2B).
The results are provided for control compounds in FIGS. 2A and 2B and scaffold molecules in FIGS. […]: 2′3′-SR-(3′OTBS-A)(2′F-A) (FIG. 3A, Comp. 6a), SR-(2′F-A)(2′OTBS-A) (FIG. 3B, Comp. 18a), RR-(2,6-DAP)(2,6-DAP) (FIG. 3C, Comp. 23), RS-(2,6-DAP)(2,6-DAP) (FIG. 3D, Comp. 23a), (6-O-propargyl-G)(G) (FIG. 3E, Comp. 25), RR-(2′F-ibG)(2′F-ibG) (FIG. 3F, Comp. 32), RR-(2′F-C)(2′F-A) (FIG. 3G, Comp. 37), RS-(2′F-C)(2′F-A) (FIG. 3H, Comp. 37a), 3′2′-RR-(ibG)(BzA) (FIG. 3I, Comp. 42), 3′2′-SS-(G)(A) (FIG. 3J, Comp. 43), dithio-3′2′-(2′OTBS-G)(3′OTBS-A) isomer 1 (FIG. 3K, Comp. 49, isomer 1), dithio-3′2′-(2′OTBS-G)(3′OTBS-A) isomer 2 (FIG. 3L, Comp. 49, isomer 2), Beta-L-SS-(A)(A) (FIG. 3M, Comp. 48), Beta-L-RS-(A)(A) (FIG. 3N, Comp. 48a), and Beta-L-RR-(A)(A) (FIG. 3O, Comp. 48b). Isomer 1 and 2 of Compound 49 are different isomers, and are each one of compound 49a, 49b, 49c or 49d.

Compound	IC50
CC(C)(C)[Si](C)(C)O[C@@H]1[C@@H]2OP(=O)(S)OC[C@H]3O[C@@H](n4cnc5c(N)ncnc54)[C@H](OP(=O)(S)OC[C@H]2O[C@H]1n1cnc2c(=O)[nH]c(N)nc21)[C@@H]3O[Si](C)(C)C(C)(C)C (single isomer, unassigned) [compound 49 isomer 1, dithio-3′2′-(2′OTBS-G)(3′OTBS-A) isomer 1]	109 µM
CC(C)(C)[Si](C)(C)O[C@@H]1[C@@H]2OP(=O)(S)OC[C@H]3O[C@@H](n4cnc5c(N)ncnc54)[C@H](OP(=O)(S)OC[C@H]2O[C@H]1n1cnc2c(=O)[nH]c(N)nc21)[C@@H]3O[Si](C)(C)C(C)(C)C (single isomer, unassigned) [compound 49 isomer 2, dithio-3′2′-(2′OTBS-G)(3′OTBS-A) isomer 2]	420 µM
CC(C)(C)[Si](C)(C)O[C@@H]1[C@@H]2O[P@](=O)(S)OC[C@H]3O[C@@H](n4cnc5c(N)ncnc54)[C@H](F)[C@@H]3O[P@@](=O)(S)OC[C@H]2O[C@H]1n1cnc2c(N)ncnc21 [Compound 18a, (2R,3R,3aR,5R,7aR,9R,10R,10aR,12S,14aR)-2,9-bis(6-amino-9H-purin-9-yl)-3-((tert-butyldimethylsilyl)oxy)-10-fluoro-5,12-dimercaptooctahydro-2H,7H-difuro[3,2-d:3′,2′-j][1,3,7,9]tetraoxa[2,8]diphosphacyclododecine 5,12-dioxide]	2110 µM
